Patent US20260315609A1, “MIXED VASOPRESSIN RECEPTOR AGONIST-ANTAGONIST FOR TREATING END-STAGE LIVER DISEASE AND COMPLICATIONS ASSOCIATED THEREOF” (FERRING B.V., priority 2022, published 2026)
Starred links: 1 amine or outer side, 2 acyl side, 3 side chain; linkers in the order of their positions; H or OH if unused. Positions of bridges follow the written chain, without caps; N, C: chain ends. Non-standard residues stand in square brackets, D forms with d. Residues, ends and D or L forms follow the SMILES beside them. Chains are numbered I, II in the order given. *: point of attachment. isoGln = NC(=O)[C@H](CCC(=O)[*:2])N[*:1]; εLys = N[C@@H](CCCCN[*:1])C(=O)[*:2]; Dab = NCC[C@H](N)C(=O)O; PhAc = O=C(Cc1ccccc1)*

Tests used:
[1] = Safety and tolerability / adverse events in healthy subjects; assay type: in vivo, human
Description: The terms “adverse event” or “AE” as used herein, refer to an untoward medical occurrence in an individual, such as an individual participating in a clinical trial. In some instances, an AE is an unfavorable and/or unintended sign, symptom, or disease, such as being temporally associated with the use of an investigative medicinal product (IMP), whether or not considered to be caused by the IMP. For example, an AE can include accidental injuries, reasons for any change in medication (drug and/or dose), reasons for any medical, nursing or pharmacy consultation, or reasons for admission to hospital or surgical procedures, and overdoses and medication errors with or without clinical consequences. In some instances, AEs are anticipated based on the pharmacological effect of the IMP. In some instances, an AE is a laboratory abnormality, vital sign or finding from physical or gynecological examination assessed as clinically significant by the investigator. In some instances, a pre-treatment adverse event is any untoward medical occurrence arising or observed between signing of informed consent and the first administration of the IMP. In some instances, a treatment emergent adverse event is an AE occurring after the administration of the IMP and within the time of residual drug effect, or a pre-treatment adverse event or pre-existing medical condition that worsens in intensity after administration of the IMP and within the time of residual drug effect.
Injection site reactions were assessed by the Investigator in treatment Period 2 only, immediately after, 0.5, 4, and 24 hours after subcutaneous administration of the study drug on Days 1 to 5. The injection site reactions to be assessed were erythema, pain, pruritus, oedema, bruising, and pallor, each to be assessed as none, mild, moderate, or severe. Injection site reactions other than those described above or persisting longer than 24 hours were classified as adverse events (AEs).
Blood samples for hematology and hemostasis parameters were collected on Day −1, and at 2, and 4 hours after the administration on Day 1, pre-dose, and 3 hours after the administration on Days 2-4, pre-dose, and at 2, and 6 hours after the administration on Day 5 and at follow-up. The actual sampling times were recorded.
(§1) Urinalysis was performed locally by means of a dip-stick test. […] In case any result of the dipstick was abnormal and clinically significant, a new urine test was to be performed. If the abnormal result was confirmed, further examination could be initiated at the discretion of the Investigator. Clinically significant abnormal findings were reported as AEs. The metabolite pattern of Compound 1 in plasma and urine were measured.

[2] = Tolerability in healthy monkeys; assay type: in vivo, cynomolgus monkey; details: non-human primates
Description: Clinical observations were made before and after dosing. IV administration
The data reported herein were collected over 19 dosing sessions of four animals each, using a total of six monkeys. Animals were repeat dosed in a crossover design with at least one animal receiving vehicle for each round; the animal receiving vehicle was varied between rounds. A 48- to 72-h washout period was used between dosing sessions. Animals were observed by camera for ~1 h before dosing (covering the baseline period) and up to 3 h after dosing.

[3] = tested on: methionine/choline-deficient (MCD) diet rats; assay: ΔPP in methionine/choline-deficient (MCD) diet rats; assay type: in vivo, rat; details: for Δ PP (mean): SC, MCD diet rats
[4] = Preceding clinical study, Cmax; assay type: in vivo, human; details: 0.3 mg
Description: The originally planned escalating doses were 0.1, 0.3, 1, 3, 6, and 10 mg, respectively. […] The doses and/or infusion rates could be adjusted based on recommendations from the SRC.

[5] = Metabolite pattern (M1, M5) in human plasma after i.v. infusion and s.c. injection; assay type: in vivo
Description: as §1
In some instances, an objective of the study was to investigate metabolite pattern of Compound 1 in plasma and urine.
Due to analytical method interference, it was not possible to analyses for metabolites in human urine. After i.v. administration, the metabolite M1 was present only at low concentrations in one subject in the male and 4 subjects in the female dose group 0.6 mg, while it was present in all females and 5 of the 6 males in the 0.9 mg dose group, albeit with few exceptions below LOQ (FIG. 44, panel A).

[6] = i.v., Period 1, active treatment
[7] = s.c., Period 2, active treatment

Q: Which results are given for `CC[C@H](C)[C@@H]1NC(=O)[C@H](Cc2ccccc2)NC(=O)[C@@H](N)CSSC[C@@H](C(=O)N2CCC[C@H]2C(=O)N[C@@H](CCNC(=O)[C@@H](N)CCCCNC(=O)[C@H](CCCCNC(C)=O)NC(=O)CC[C@H](NC(=O)[C@H](CCCNC(=N)N)NC(=O)[C@@H]2CCCN2C(=O)[C@H](C)NC(=O)[C@H](CC(N)=O)NC(=O)[C@H](CCC(N)=O)NC(=O)[C@H](Cc2ccccc2)NC(=O)[C@@H](Cc2ccc(OC)cc2)NC(=O)Cc2ccccc2)C(N)=O)C(=O)NCC(N)=O)NC(=O)[C@H](CC(N)=O)NC(=O)[C@H](CCC(N)=O)NC1=O` [Compound 1, Glycinamide, L-cysteinyl-L-phenylalanyl-L-isoleucyl-L-glutaminyl-L-asparaginyl-L-cysteinyl-L-prolyl-N4-(phenylacetyl-O-methyl-D-tyrosyl-L-phenylalanyl-L-glutaminyl-L-asparaginyl-L-alanyl-L-prolyl-L-arginyl-L-isoglutamyl-N5-acetyl-L-lysyl-L-ε-lysyl)-L-2,4-diaminobutyryl-, cyclic (1→6)-disulfide] (I: H-CFIQNCP[Dab]G-NH2 / II: PhAc-[dY](Me)FQNAPR[isoGln]K(Ac)[εLys]; disulfide I:1-I:6; amide I:8-II:C)?
A: severe AEs ([1]; i.v. 0.1 mg (bradycardia)): One; TEAEs regarded as ADRs ([1]; i.v., 34 subjects on active treatment): 87; serious AEs ([1]; i.v., Period 1): No serious AEs occurred; number of TEAEs [1, 6]: 94; subjects with TEAEs [1, 6]: 35 of the 48; maximum tolerated s.c. dose (MTD) ([1]; s.c.): about 0.1 mg; severe AEs ([1]; s.c. 0.1 mg (abdominal pain)): 3; subjects with moderate oedema and mild pain at injection site ([1]; s.c. 0.1 mg, 30 min): 1 subject; severe AEs ([1]; s.c. 0.3 mg (abdominal pain, back pain), 1 subject): 2; serious AEs leading to discontinuation ([1]; s.c. 0.3 mg (elevated troponin I)): 1; injection site reactions ([1]; s.c. (bolus) injection): Erythema, pallor, and pruritus of mild severity; TEAEs regarded as ADRs ([1]; s.c., 9 subjects on active treatment): 87; AE leading to death ([1]; s.c., Period 2): No AE led to death; number of TEAEs [1, 7]: 87; subjects with TEAEs [1, 7]: 9 subjects; tolerability ([1]; single i.v. infusion, about 0.9 mg or less): safe and well tolerated; effect on body temperature [2]: no apparent Compound 1-related effect on body temperature; tolerability ([2]; single-dose SC and IV bolus): well tolerated; Δ PP (mean) ([3]; 25 μg/kg, 0 min): 0.0 mmHg; Δ PP (mean) ([3]; 25 μg/kg, 1 min): −0.3 mmHg; Δ PP (mean) ([3]; 25 μg/kg, 2 min): −0.8 mmHg; Δ PP (mean) ([3]; 25 μg/kg, 3 min): −1.3 mmHg; Δ PP (mean) ([3]; 25 μg/kg, 5 min): −1.8 mmHg; Δ PP (mean) ([3]; 25 μg/kg, 7 min): −1.9 mmHg; Δ PP (mean) ([3]; 25 μg/kg, 10 min): −2.1 mmHg; Δ PP (mean) ([3]; 25 μg/kg, 15 min): −2.2 mmHg; Δ PP (mean) ([3]; 25 μg/kg, 20 min): −2.3 mmHg; Δ PP (mean) ([3]; 25 μg/kg, 30 min): −2.3 mmHg; Δ PP (mean) ([3]; 25 μg/kg, 60 min): −2.2 mmHg; Δ PP (mean) ([3]; 25 μg/kg, 90 min): −1.8 mmHg; Δ PP (mean) ([3]; 100 μg/kg, 0 min): 0.0 mmHg; Δ PP (mean) ([3]; 100 μg/kg, 1 min): −0.5 mmHg; Δ PP (mean) ([3]; 100 μg/kg, 2 min): −1.2 mmHg; Δ PP (mean) ([3]; 100 μg/kg, 3 min): −1.6 mmHg; Δ PP (mean) ([3]; 100 μg/kg, 5 min): −2.1 mmHg; Δ PP (mean) ([3]; 100 μg/kg, 7 min): −2.5 mmHg; Δ PP (mean) ([3]; 100 μg/kg, 10 min): −2.5 mmHg; Δ PP (mean) ([3]; 100 μg/kg, 15 min): −2.4 mmHg; Δ PP (mean) ([3]; 100 μg/kg, 20 min): −2.3 mmHg; Δ PP (mean) ([3]; 100 μg/kg, 30 min): −2.2 mmHg; Δ PP (mean) ([3]; 100 μg/kg, 60 min): −2.0 mmHg; Δ PP (mean) ([3]; 100 μg/kg, 90 min): −1.7 mmHg; Δ PP (mean) ([3]; 500 μg/kg, 0 min): 0.0 mmHg; Δ PP (mean) ([3]; 500 μg/kg, 1 min): −1.2 mmHg; Δ PP (mean) ([3]; 500 μg/kg, 2 min): −1.9 mmHg; Δ PP (mean) ([3]; 500 μg/kg, 3 min): −2.5 mmHg; Δ PP (mean) ([3]; 500 μg/kg, 5 min): −2.9 mmHg; Δ PP (mean) ([3]; 500 μg/kg, 7 min): −3.3 mmHg; Δ PP (mean) ([3]; 500 μg/kg, 10 min): −2.9 mmHg; Δ PP (mean) ([3]; 500 μg/kg, 15 min): −3.5 mmHg; Δ PP (mean) ([3]; 500 μg/kg, 20 min): −3.8 mmHg; Δ PP (mean) ([3]; 500 μg/kg, 30 min): −3.9 mmHg; Δ PP (mean) ([3]; 500 μg/kg, 60 min): −3.4 mmHg; Δ PP (mean) ([3]; 500 μg/kg, 90 min): −3.7 mmHg; maximum ΔPP ([3]; SC 25 jag/kg (so in the source)): −2.3±0.2 mmHg; maximum ΔPP ([3]; SC 100 jag/kg (so in the source)): −2.5±0.3 mmHg; maximum ΔPP ([3]; SC 500 jag/kg (so in the source)): −3.9±0.8 mmHg; Cmax ([4]; 6 hour i.v. infusion): up to 6 ng/mL; Cmax ([4]; s.c. injection): up to 2.5 ng/mL; half-life ([5]; i.v.): ~4 h; half-life ([5]; s.c.): about 2 hours; conversion of Compound 1 to M1 ([5]; s.c. (bolus) injection, human): 80-90%
